Assay results as given in the supplement of paper PMC10307832.

Tests used:
Assay in all cases: relative viability (nuclei count vs DMSO), 5 days (fraction); higher = more cells survive
Bemcentinib + Decitabine = compound: Nc1nc(Nc2ccc3c(c2)CC[C@@H](N2CCCC2)CC3)nn1-c1cc2c(nn1)-c1ccccc1CCC2 [Bemcentinib] + Nc1ncn([C@H]2C[C@H](O)[C@@H](CO)O2)c(=O)n1 [Decitabine] (partner 2 µM)
Procedure, shortened: (§1)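 Relative viability is defined as nuclei in treated wells over nuclei in vehicle wells. Duplicate plates were run and medians reported. Lung cancer cell lines in 1536-well plates were dosed by pin tool one day after seeding, with one drug or with a fixed anchor-drug dose plus five library-drug doses (not always all listed) in √10 steps, and nuclei were counted after 5 days.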

[1] = compound: CC1=CC=C(C=C1)C(=O)CN2C3=C(CCCC3)SC2=N [Pifithrin_alpha] + CS(=O)(=O)N1CCN(Cc2cc3nc(-c4cccc5[nH]ncc45)nc(N4CCOCC4)c3s2)CC1 [Pictilisib] (partner 1 µM)
Procedure, shortened: as §1

Bemcentinib + Pictilisib = compound: Nc1nc(Nc2ccc3c(c2)CC[C@@H](N2CCCC2)CC3)nn1-c1cc2c(nn1)-c1ccccc1CCC2 [Bemcentinib] + CS(=O)(=O)N1CCN(Cc2cc3nc(-c4cccc5[nH]ncc45)nc(N4CCOCC4)c3s2)CC1 [Pictilisib] (partner 1 µM)
Procedure, shortened: as §1

[2] = compound: CC1=CC=C(C=C1)C(=O)CN2C3=C(CCCC3)SC2=N [Pifithrin_alpha] + CS(=O)(=O)CCNCc1ccc(-c2ccc3ncnc(Nc4ccc(OCc5cccc(F)c5)c(Cl)c4)c3c2)o1 [Lapatinib] (partner 2 µM)
Procedure, shortened: as §1

Cell Line | relative viability (Bemcentinib + Decitabine; first compound 0.04 µM) | relative viability (Bemcentinib + Decitabine; first compound 0.1265 µM) | relative viability (Bemcentinib + Decitabine; first compound 0.4 µM) | relative viability (Bemcentinib + Decitabine; first compound 1.265 µM) | relative viability (Bemcentinib + Decitabine; first compound 4 µM) | relative viability ([1]; first compound 1 µM) | relative viability ([1]; first compound 3.162 µM) | relative viability ([1]; first compound 10 µM) | relative viability ([1]; first compound 31.62 µM) | relative viability ([1]; first compound 100 µM) | relative viability (Bemcentinib + Pictilisib; first compound 0.04 µM) | relative viability (Bemcentinib + Pictilisib; first compound 0.1265 µM) | relative viability (Bemcentinib + Pictilisib; first compound 0.4 µM) | relative viability (Bemcentinib + Pictilisib; first compound 1.265 µM) | relative viability (Bemcentinib + Pictilisib; first compound 4 µM) | relative viability ([2]; first compound 1 µM) | relative viability ([2]; first compound 3.162 µM) | relative viability ([2]; first compound 10 µM) | relative viability ([2]; first compound 31.62 µM) | relative viability ([2]; first compound 100 µM)
HCC-44 | 0.954 | 0.986 | 0.947 | 0.978 | 0.957 | 0.433 | 0.475 | 0.539 | 0.408 | 0.423 | 0.698 | 0.618 | 0.599 | 0.625 | 0.651 | 0.932 | 0.965 | 0.791 | 0.641 | 0.763
HCC-78 | 0.691 | 0.655 | 0.636 | 0.655 | 0.637 | 0.134 | 0.218 | 0.174 |  | 0.196 | 0.144 | 0.211 | 0.202 | 0.197 | 0.202 | 0.432 | 0.77 | 0.693 |  | 0.619
HCC-366 | 0.335 | 0.362 | 0.395 | 0.369 | 0.341 | 0.105 | 0.106 | 0.136 | 0.136 | 0.112 | 0.124 | 0.206 | 0.157 | 0.124 | 0.146 | 0.861 | 1.24 | 1.1 |  | 1.06
HCC-827 | 0.34 | 0.347 | 0.316 | 0.292 | 0.332 | 1.05 | 0.982 | 0.907 | 0.791 | 1.02 | 1.11 | 0.943 | 1.05 | 0.877 | 1.07 | 0.197 | 0.207 | 0.235 | 0.197 | 0.198
HOP-62 | 0.25 | 0.198 | 0.255 | 0.207 | 0.216 | 0.376 | 0.822 | 0.875 | 0.342 | 0.804 | 0.661 | 0.82 |  | 0.712 | 0.92 | 0.886 | 1.21 | 0.991 | 0.714 | 1.23
IA-LM |  |  |  |  |  | 0.369 | 0.298 | 0.312 | 0.344 | 0.291 | 0.33 | 0.374 | 0.397 | 0.304 | 0.33 | 0.624 | 0.788 | 0.498 | 0.407 | 0.322
LC-2-ad | 0.79 | 0.724 | 0.824 | 0.817 | 0.756 | 0.414 | 0.382 | 0.489 | 0.304 | 0.18 | 0.456 | 0.536 | 0.553 | 0.426 | 0.424 | 0.986 | 1.03 | 0.935 | 0.576 | 0.759
LCLC-97TM1 | 0.248 | 0.212 | 0.217 | 0.207 | 0.252 |  | 0.179 | 0.224 |  | 0.229 | 0.16 | 0.183 |  | 0.237 | 0.249 |  | 1.17 | 0.79 |  | 1.38
LCLC-103H | 0.739 | 0.735 | 0.738 | 0.812 | 0.764 | 0.53 | 0.531 | 0.566 | 0.551 | 0.567 | 0.588 | 0.632 | 0.692 | 0.604 | 0.616 |  |  |  |  | 
